{"source": "paper PMC5974403", "about": "“The novel histone de acetylase 6 inhibitor, MPT0G211, ameliorates tau phosphorylation and cognitive deficits in an Alzheimer’s disease model” (Cell Death & Disease, 2018)", "key": {"[1]": {"tested_on": "Neuro-2a cells", "assay": "MTT cell viability, Neuro-2a", "assay_type": "cell-based, mouse", "settings": "24 h, 0.01–1 μM", "protocol": "Cell viabilities were determined by MTT assay. The results represent the mean ± SEM of three independent experiments; *p < 0.05, **p < 0.01 and ***p < 0.001 compared with controls TEXT PRINTED IN THE PICTURE: (A) no label printed: M.W. 293.32"}, "[2]": {"tested_on": "SH-SY5Y cells", "assay": "Western blot of tau phosphorylation and kinases in SH-SY5Y cells transfected with pCAX APP 695 and pRK5-EGFP-Tau P301L", "assay_type": "cell-based, human", "settings": "0.1 μM, 24 h", "protocol": "Images represented magnification at ×100. b Cells were transfected with pCAX APP 695 for 24 h, harvested, and cell lysates were subjected to Western blotting. c, d SH-SY5Y and Neuro-2a cells were transfected with pCAX APP 695 and/or pRK5-EGFP-Tau P301L for 24 h. Cell lysates were prepared for western blot analysis of the indicated proteins. e, f Cells were transfected with pCAX APP 695 and pRK5-EGFP-Tau P301L for 24 h and were then incubated with or without MPT0G211 or ACY-1215 (0.1 μM) for another 24 h. Cell lysates were subjected to western blot analysis using the indicated antibodies. Results are presented as the mean ± SEM from three independent experiments. **p < 0.01, ***p < 0.001 compared with the control group; ^#p < 0.05, ^##p < 0.01 compared with the indicated groups\nCell lysates were prepared for western blot analysis of the indicated proteins. Results are presented as the mean ± SEM. *p < 0.05, **p < 0.01, and ***p < 0.001 compared with the control group; ^#p < 0.05, ^##p < 0.01, ^###p < 0.001 compared with the indicated groups\nCells were seeded 1 day before transfection. The plasmids pCAX FLAG APP and pRK5-EGFP-Tau P301L (1 μg each) and 1 μL of TurboFect transfection reagent were mixed for 20 min at room temperature, added to the cells, and the suspensions were incubated for 24 h at 37 °C in a humidified atmosphere containing 5% CO2.\n(§1) Cells (1 × 10^6) were incubated for 10 min at 4 °C in lysis buffer (20 mM HEPES, pH 7.4, 2 mM EGTA, 50 mM β-glycerophosphate, 0.1% Triton X-100, 10% glycerol, 1 mM dithiothreitol, 1 μg/mL leupeptin, 5 μg/mL aprotinin, 1 mM phenylmethylsulfonyl fluoride, and 1 mM sodium orthovanadate), scraped from the plate, incubated on ice for 10 min, and centrifuged at 17,000 × g for 30 min at 4 °C. Protein samples (30 μg) were electrophoresed through sodium dodecyl sulfate-polyacrylamide gels (SDS-PAGE) and transferred onto a nitrocellulose membrane, which was then blocked by incubation for 30 min at room temperature with 5% fat-free milk in PBS. Immunoblotting was performed by overnight incubation at 4 °C with primary antibodies in PBS, followed by incubation for 1 h at room temperature with HRP-conjugated secondary antibodies. Bound antibodies were measured using ECL reagent (T-Pro Biotechnology, New Taipei City, Taiwan), and the membrane was placed on a photographic film. Cell lysates (30 μg) were incubated with antibodies (1 μg each) and protein A/G agarose beads overnight at 4 °C. The precipitated beads were washed three times with 1 mL of ice-cold cell lysis buffer, and bound immune complexes were separated using 8% SDS-PAGE, followed by immunoblotting using the indicated primary antibody."}, "[3]": {"tested_on": "SH-SY5Y cells", "assay": "Flow cytometry of sub-G1 (PI) and annexin V/PI in transfected SH-SY5Y cells", "assay_type": "cell-based, human", "settings": "0.1 μM, 24 h", "protocol": "The fractionation scheme used to separate different cellular pools of tau, and the western blot analysis of the effects of the compounds on tau pools generated using the fractionation scheme are presented. b, d SH-SY5Y cells were transfected for 24 h with pCAX APP 695 and pRK5-EGFP-Tau P301L, incubated with or without MPT0G211 or ACY-1215 (0.1 μM) for another 24 h, and then the cells were fixed and stained by propidium iodide (b) or annexin V/PI double staining (d) and analyzed by flow cytometry. c, e Percentages of the subG1 phase (c) or annexin V-positive cells (e) in response to drug treatment as explained in (b). Results are presented as the mean ± SEM. *p < 0.05 and **p < 0.01 compared with the control group; ^#p < 0.05 and ^##p < 0.01 compared with the indicated groups TEXT PRINTED IN THE PICTURE: (B) MPT0G211: hAPP + hTauP301L: SubG1 10.91% | (B) ACY-1215: hAPP + hTauP301L: SubG1 15.40% | (D) MPT0G211: hAPP + hTauP301L: 9.56%; hAPP + hTauP301L: 11.26% | (D) ACY-1215: hAPP + hTauP301L: 9.28%; hAPP + hTauP301L: 11.25%\nAfter drug treatment, the cells were collected, washed with cold phosphate-buffered saline (PBS), and fixed with 75% alcohol overnight at −20 °C. After centrifugation, the fixed cells were washed with cold PBS and resuspended in DNA extraction buffer (0.2 M Na2HPO4, 0.1 M citric acid, pH 7.8) for 30 min. The cells were centrifuged and incubated with propidium iodide (PI) (0.1% Triton X-100, 100 μg/mL RNase A, and 80 μg/mL PI in PBS) for 30 min. The cell cycle was analyzed using a FACScan Flow cytometer and Cell Quest software (Becton Dickinson, Mountain View, CA, USA)."}, "[4]": {"tested_on": "Neuro-2a cells", "assay": "Immunoprecipitation/immunoblot of HDAC6, acetyl-lysine, ubiquitin in transfected Neuro-2a cells", "assay_type": "cell-based, mouse", "settings": "Neuro-2a transfected, 24 h", "protocol": "Fig. 4 MPT0G211 increased the ubiquitination of p-tau and degradation by proteasome. a, b SH-SY5Y and Neuro-2a cells were transfected for 24 h with pCAX APP 695 and pRK5-EGFP-Tau P301L and incubated with MPT0G211 or ACY-1215 (0.1 μM) for another 24 h, after which the cell lysates were immunoprecipitated with antibodies against HDAC6, acetyl-lysine (a) or ubiquitin (b) and were subjected to immunoblotting. c Cells were transfected with pCAX APP 695 and pRK5-EGFP-Tau P301L for 24 h and were then incubated with MPT0G211 (0.01–1 μM) for another 24 h. Immunoblots reveal polyubiquitin complexes. d pCAX APP 695 or pRK5-EGFP-Tau P301L were used to transfect the cells for 24 h, incubated with or without MG132 (1 μM) for 30 min, and were then treated with MPT0G211 or ACY-1215 (0.1 μM) for another 24 h. Cell lysates were prepared for western blot analysis of the indicated proteins\nas §1"}, "[5]": {"tested_on": "HDAC6", "parameters": "method as in PMID 29304284", "settings": "cited from earlier work"}, "[6]": {"settings": "hAPP + hTauP301L transfected SH-SY5Y, Fig. 3d picture, quadrant not identified"}}, "note": "Entries after “also recorded” stand apart in the source; their conditions may differ."}
{"smiles": "O=C(NO)c1ccc(CNc2cccc3cccnc23)cc1", "note": "[MPT0G211, N-hydroxy-4-((quinolin-8-ylamino)methyl)benzamide]", "values": [{"measurement": "cytotoxicity (MTT cell viability)", "setting": "[1]", "result": "did not result in any significant cytotoxicity"}, {"measurement": "phosphorylation of tau Ser396", "setting": "[2]; SH-SY5Y transfected hAPP 695 + hTau P301L", "result": "significantly inhibited; also recorded: significantly attenuated"}, {"measurement": "CDK5, p25, or p35 expression", "setting": "[2]; SH-SY5Y transfected", "result": "no marked changes"}, {"measurement": "phospho-GSK3β on Ser9", "setting": "[2]; SH-SY5Y transfected", "result": "significant phospho-GSK3β increases"}, {"measurement": "phospho-GSK3β on Ser216", "setting": "[2]; SH-SY5Y transfected", "result": "a decrease"}, {"measurement": "phosphorylation of tau Ser404", "setting": "[2]; SH-SY5Y transfected", "result": "significantly attenuated"}, {"measurement": "SubG1 population", "setting": "[3]; hAPP + hTauP301L transfected SH-SY5Y, PI staining, Fig. 3b picture", "result": 10.91, "unit": "%"}, {"measurement": "annexin V/PI double staining, quadrant percentage", "setting": "[3]; [6]", "result": 11.26, "unit": "%"}, {"measurement": "annexin V/PI double staining, quadrant percentage (first value)", "setting": "[3]; [6]", "result": 9.56, "unit": "%"}, {"measurement": "plasmid transfection-induced sub-G1 population and annexin V-positive apoptotic cells increase", "setting": "[3]; transfected neuronal cells", "result": "significantly inhibited"}, {"measurement": "coimmunoprecipitation of ubiquitin with p-tau (Ser396)", "setting": "[4]; 0.1 μM", "result": "clearly increased"}, {"measurement": "HDAC6/Hsp90 binding", "setting": "[4]; 0.1 μM, IP", "result": "downregulation"}, {"measurement": "acetylation of Hsp90", "setting": "[4]; 0.1 μM, IP", "result": "clearly enhanced"}, {"measurement": "level of polyubiquitinated proteins", "setting": "[4]; 0.01–1 μM", "result": "significantly accumulated"}, {"measurement": "selectivity for HDAC6 compared with the other HDAC isoforms", "setting": "[5]", "result": 1000, "unit": "fold"}, {"measurement": "IC50", "setting": "[5]; read-out: HDAC6 inhibition IC50", "result": 0.291, "unit": "nM"}]}
